ChEMBL document CHEMBL5365467 (J Med Chem, 2023)
Values belong to the compound of their own block, whether it stands above or below them.

What was measured:
[1] = biological target: Protein cereblon (Homo sapiens, UniProt Q96SW2); experiment: Binding affinity to CRBN (unknown origin) assessed as inhibition constant
[2] = test system: VCaP; experiment: Growth inhibition in human VCaP cells
[3] = biological target: Protein cereblon/Androgen receptor (Homo sapiens, UniProt P10275+Q96SW2, T878A); experiment: PROTAC activity at AR T878A mutant/CRBN in human LNCaP cells assessed as induction of androgen receptor degradation measured at 24 hrs by Western blot analysis; assay type: cell-based
[4] = biological target: Protein cereblon/Androgen receptor (Homo sapiens, UniProt P10275+Q96SW2); experiment: PROTAC activity at AR/CRBN in AR-positive human VCaP cells assessed as induction of androgen receptor degradation measured at 24 hrs; assay type: cell-based
[5] = biological target: T1, Androgen receptor (Homo sapiens, UniProt P10275)
T1 sequence (P10275 whole entry): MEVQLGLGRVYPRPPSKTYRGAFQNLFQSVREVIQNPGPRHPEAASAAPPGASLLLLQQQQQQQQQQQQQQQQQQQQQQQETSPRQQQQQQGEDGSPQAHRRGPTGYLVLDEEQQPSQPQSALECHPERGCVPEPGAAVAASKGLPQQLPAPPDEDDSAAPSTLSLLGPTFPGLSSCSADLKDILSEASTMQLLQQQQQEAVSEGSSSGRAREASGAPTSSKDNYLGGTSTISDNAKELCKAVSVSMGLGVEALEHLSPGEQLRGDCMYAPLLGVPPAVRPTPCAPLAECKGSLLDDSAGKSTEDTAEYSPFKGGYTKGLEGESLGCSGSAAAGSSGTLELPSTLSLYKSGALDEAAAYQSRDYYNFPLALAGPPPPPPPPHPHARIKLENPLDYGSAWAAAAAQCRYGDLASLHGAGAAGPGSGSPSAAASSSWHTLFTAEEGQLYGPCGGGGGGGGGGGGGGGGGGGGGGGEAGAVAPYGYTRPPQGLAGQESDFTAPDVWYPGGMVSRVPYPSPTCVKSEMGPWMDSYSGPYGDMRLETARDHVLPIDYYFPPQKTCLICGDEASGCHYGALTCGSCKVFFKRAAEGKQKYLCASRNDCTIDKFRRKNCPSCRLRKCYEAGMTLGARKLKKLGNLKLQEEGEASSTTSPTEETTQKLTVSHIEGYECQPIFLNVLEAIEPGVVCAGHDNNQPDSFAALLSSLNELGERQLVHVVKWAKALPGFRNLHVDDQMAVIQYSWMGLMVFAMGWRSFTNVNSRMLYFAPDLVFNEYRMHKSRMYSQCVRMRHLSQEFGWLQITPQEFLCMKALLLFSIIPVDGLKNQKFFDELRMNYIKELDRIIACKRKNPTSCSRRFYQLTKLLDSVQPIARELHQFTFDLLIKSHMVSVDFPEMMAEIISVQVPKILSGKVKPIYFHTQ

[6] = Volume of distribution at steady state in Sprague-Dawley rat at 1 mg/kg, iv measured upto 24 hrs by LC-MS/MS analysis; assay type: ADME, organism-based; settings: in vivo, read-out: Vdss
[7] = AUC (0 to t) in Sprague-Dawley rat at 1 mg/kg, iv measured upto 24 hrs by LC-MS/MS analysis; assay type: ADME, organism-based; set-up: dose 1 mg/kg, time < 24 hrs, route iv; settings: in vivo
[8] = Clearance in Sprague-Dawley rat at 1 mg/kg, iv measured upto 24 hrs by LC-MS/MS analysis; assay type: ADME, organism-based; settings: in vivo
[9] = AUC (0 to t) in Sprague-Dawley rat at 3 mg/kg, po measured upto 24 hrs by LC-MS/MS analysis; assay type: ADME, organism-based; set-up: dose 3 mg/kg, time < 24 hrs, route po; settings: in vivo
[10] = Cmax in Sprague-Dawley rat at 3 mg/kg, po measured upto 24 hrs by LC-MS/MS analysis; assay type: ADME, organism-based; set-up: dose 3 mg/kg, time < 24 hrs, route po; settings: in vivo
[11] = Half life in Sprague-Dawley rat at 5 mg/kg, po measured upto 24 hrs by LC-MS/MS analysis; settings: in vivo
[12] = Oral bioavailability in Sprague-Dawley rat at 3 mg/kg measured upto 24 hrs by LC-MS/MS analysis; assay type: ADME, organism-based; settings: in vivo
[13] = Half life in Sprague-Dawley rat at 1 mg/kg, iv measured upto 24 hrs by LC-MS/MS analysis; assay type: ADME, organism-based; settings: in vivo
[14] = Clearance in Sprague-Dawley rat at 2 mg/kg, iv measured upto 24 hrs by LC-MS/MS analysis; settings: in vivo
[15] = in vivo; settings: Sprague-Dawley, rat, po, 5 mg/kg
[16] = in vivo; settings: Sprague-Dawley, rat, iv, 2 mg/kg
[17] = in vivo; settings: Sprague-Dawley, rat, po, 5 mg/kg; remark: listed apart in the source
[18] = in vivo; settings: Sprague-Dawley, rat, po, 5 mg/kg; remark: listed apart in the source
[19] = Half life in Sprague-Dawley rat at 2 mg/kg, iv measured upto 24 hrs by LC-MS/MS analysis; settings: in vivo
[20] = Volume of distribution at steady state in Sprague-Dawley rat at 2 mg/kg, iv measured upto 24 hrs by LC-MS/MS analysis; settings: in vivo

Protein cereblon/Androgen receptor (Homo sapiens, UniProt P10275+Q96SW2), sequence (Q96SW2 whole entry, one chain of several): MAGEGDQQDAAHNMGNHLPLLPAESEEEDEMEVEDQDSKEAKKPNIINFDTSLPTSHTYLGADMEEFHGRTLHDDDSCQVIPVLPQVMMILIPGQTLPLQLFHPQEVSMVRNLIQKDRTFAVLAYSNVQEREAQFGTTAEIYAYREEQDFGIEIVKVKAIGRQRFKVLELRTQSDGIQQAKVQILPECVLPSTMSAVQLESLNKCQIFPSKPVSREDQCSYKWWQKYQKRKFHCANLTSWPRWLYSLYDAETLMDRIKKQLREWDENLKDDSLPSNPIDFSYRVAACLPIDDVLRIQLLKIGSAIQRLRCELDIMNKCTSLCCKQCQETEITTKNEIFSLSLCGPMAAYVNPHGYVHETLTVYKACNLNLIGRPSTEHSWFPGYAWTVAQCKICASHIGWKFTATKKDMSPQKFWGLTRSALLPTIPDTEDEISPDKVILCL
Protein cereblon, sequence (Q96SW2 whole entry): as the sequence (Q96SW2 whole entry, one chain of several) above

Structure (SMILES): C[C@H]1CC2(CCN(c3ccc(C(=O)N4CCC(CN5Cc6cc7c(cc6C5)C(=O)N(C5CCC(=O)NC5=O)C7=O)CC4)cn3)CC2)CN1c1ccc(C#N)c(Cl)c1 (some centres not stated)
IC50 [2]: 11 nM
DC50 [3]: 2.2 nM
DC50 ([4]; read-out: DC50): 2.3 nM

Structure (SMILES): C[C@H]1CC2(CCN(c3ccc(C(=O)N4CCC(CN5Cc6cc7c(cc6C5)C(=O)N(C5CCC(=O)NC5=O)C7=O)CC4)nn3)CC2)CN1c1ccc(C#N)c(Cl)c1 (some centres not stated)
Vd [6]: 2.2 L/kg
AUC(0-t) at 24 h [7]: 1010 ng·h/mL
IC50 [2]: 20 nM
clearance [8]: 32.3 mL/min/kg
AUC(0-t) at 24 h [9]: 1100 ng·h/mL
DC50 [3]: 0.5 nM
Cmax [10]: 247 ng/mL
DC50 ([4]; read-out: DC50): 2.7 nM
half-life at 24 h [11]: 1.4 h
bioavailability [12]: 36%
half-life [13]: 2 h

Structure (SMILES): N#Cc1ccc(N2CCC3(CCN(c4ccc(C(=O)N5CCC(N6CCc7cc8c(cc7C6)C(=O)N(C6CCC(=O)NC6=O)C8=O)CC5)cc4)CC3)C2)cc1Cl (configuration not stated)
DC50 ([4]; read-out: DC50): 73 nM

Structure (SMILES): N#Cc1ccc(N2CCC3(CCN(c4ccc(C(=O)N5CCC(N6Cc7cc8c(cc7C6)C(=O)N(C6CCC(=O)NC6=O)C8=O)CC5)cc4)CC3)C2)cc1Cl (configuration not stated)
DC50 ([4]; read-out: DC50): 9.7 nM

Structure (SMILES): CN1CCN(C(=O)c2ccc(N3CCC4(CC3)CCN(c3ccc(C#N)c(Cl)c3)C4)cc2)CC1
IC50 [5]: 80 nM

Structure (SMILES): C[C@@H]1CC2(CCN(c3ccc(C(=O)N4CCN(C)CC4)cc3)CC2)CN1c1ccc(C#N)c(Cl)c1
DC50 [4]: Not Active

Structure (SMILES): C[C@H]1CC2(CCN(c3ccc(C(=O)N4CC(N5Cc6cc7c(cc6C5)C(=O)N(C5CCC(=O)NC5=O)C7=O)C4)cc3)CC2)CN1c1ccc(C#N)c(Cl)c1 (some centres not stated)
clearance at 24 h [14]: 14.5 mL/min/kg
Cmax at 24 h [15]: 94 ng/mL
AUC(0-t) at 24 h [16]: 2370 ng·h/mL
AUC(0-t) at 24 h [17]: 423 ng·h/mL
IC50 [2]: 85 nM
bioavailability at 24 h [18]: 7.2%
DC50 [3]: 5 nM
half-life at 24 h [19]: 3.2 h
DC50 ([4]; read-out: DC50): 0.7 nM
Vd at 24 h [20]: 2.7 L/kg
half-life at 24 h [11]: 1.89 h

Structure (SMILES): C[C@H]1CC2(CCN(c3ccc(C(=O)N4CCC(C)(CN5Cc6cc7c(cc6C5)C(=O)N(C5CCC(=O)NC5=O)C7=O)CC4)cc3)CC2)CN1c1ccc(C#N)c(Cl)c1 (some centres not stated)
clearance at 24 h [14]: 6.33 mL/min/kg
Cmax at 24 h [15]: 539 ng/mL
AUC(0-t) at 24 h [16]: 5090 ng·h/mL
AUC(0-t) at 24 h [17]: 5730 ng·h/mL
IC50 [2]: 42 nM
bioavailability at 24 h [18]: 45%
DC50 [3]: 8.9 nM
half-life at 24 h [19]: 6.1 h
DC50 ([4]; read-out: DC50): 3.8 nM
Vd at 24 h [20]: 3.1 L/kg
half-life at 24 h [11]: 8.4 h

The next lines start with the values.

Ki [1]: 500 nM
Structure (SMILES): O=C1CCC(N2C(=O)c3ccc(N4CCC4)cc3C2=O)C(=O)N1 (configuration not stated)

IC50 [5]: 55 nM
Structure (SMILES): CN1CCN(c2ccc(C(=O)N[C@H]3CC[C@H](Oc4ccc(C#N)c(Cl)c4)CC3)cc2)CC1

IC50 [5]: 1800 nM
Structure (SMILES): CN1CCN(C(=O)c2ccc(N3CCC4(CCN(c5ccc(C#N)c(Cl)c5)C4)C3)cc2)CC1 (configuration not stated)

clearance at 24 h [14]: 25 mL/min/kg
Cmax at 24 h [15]: 78 ng/mL
AUC(0-t) at 24 h [16]: 1380 ng·h/mL
AUC(0-t) at 24 h [17]: 310 ng·h/mL
IC50 [2]: 25.7 nM
bioavailability at 24 h [18]: 9%
half-life at 24 h [19]: 1.4 h
Vd at 24 h [20]: 1.8 L/kg
half-life at 24 h [11]: 1.2 h
Structure (SMILES): C[C@H]1CC2(CCN(c3ccc(C(=O)N4CC(CN5Cc6cc7c(cc6C5)C(=O)N(C5CCC(=O)NC5=O)C7=O)C4)cc3)CC2)CN1c1ccc(C#N)c(Cl)c1 (some centres not stated)

IC50 [2]: 23 nM
Structure (SMILES): CC[C@H]1CC2(CCN(c3ccc(C(=O)N4CCC(CN5Cc6cc7c(cc6C5)C(=O)N(C5CCC(=O)NC5=O)C7=O)CC4)cc3)CC2)CN1c1ccc(C#N)c(Cl)c1 (some centres not stated)

Ki [1]: 4900 nM
Structure (SMILES): CN1CCN(c2cc3c(cc2F)C(=O)N(C2CCC(=O)NC2=O)C3=O)CC1 (configuration not stated)

IC50 [5]: 5400 nM
Structure (SMILES): CN1CCN(C(=O)c2ccc(N3CCC4(CCN(c5ccc(C#N)c(Cl)c5)CC4)C3)cc2)CC1

IC50 [5]: 9900 nM
Structure (SMILES): CN1CCN(c2ccc(C(=O)N3CCC4(C3)CN(c3ccc(C#N)c(Cl)c3)C4)cc2)CC1

DC50 ([4]; read-out: DC50): 3000 nM
Structure (SMILES): N#Cc1ccc(N2CCC3(CCN(c4ccc(C(=O)N5CCC(CCN6CCc7cc8c(cc7CC6)C(=O)N(C6CCC(=O)NC6=O)C8=O)CC5)cc4)CC3)C2)cc1Cl (configuration not stated)
